Laboratory results from patent US9447075B2, “Pyridazine derivatives as EAAT2 activators” (The Brigham and Women's Hospital, Inc., priority 2011, dated 2016).

Key:
[1] = tested on: All other kinases (288 kinases tested); assay: Protein kinase profiling: all other of 288 kinases; type: biochemical; conditions: 1 and 10 μM
Description: (§1) To assess Compound 212320's biological activity and selectivity, we performed an in vitro side effect profiling study. Seventy-one targets were tested at 10 μM in duplicate. These targets include neurotransmitter related receptors (30), steroids (2), ion channels (6), second messenger (1), prostaglandins (3), growth factors/hormones (4), brain/gut peptides (13), enzymes (5) and cytochrome p450 (7). […] Additionally, we performed a protein kinase profiling study. Compound 212320 was tested at 1 and 10 μM against 288 kinases. […] These studies indicate that Compound 212320 has high specificity and low side-effects/toxicity potential.

EAAT2 [2] = assay: Immunofluorescent staining of induced EAAT2 protein in PA-EAAT2 cells; type: cell-based, human; conditions: PA-EAAT2 cells (FIG. 6E)
Description: Characterization and efficacy studies of a compound, Compound 212320 (FIG. 6A) is shown. […] In the absence of serum, PA-EAAT2 cells express low amounts of EAAT2 protein, although the recombinant EAAT2 mRNA are expressed (translational silencing); however, EAAT2 protein levels are increased when an activator is added to the culture (translational activation). This cell line was used for high-throughput screening to identify EAAT2 translational activators. To prioritize candidate compounds, we initially evaluated activation of EAAT2 protein in PA-EAAT2 cells. Promising compounds were further evaluated in primary dissociated neuron and astrocyte mixed cultures and then in mice. FIG. 6 presents the characterization of Compound 212320 in PA-EAAT2 cells. Compound 212320 increased EAAT2 protein levels in a dose—(FIG. 6B) and time—(FIG. 6C) dependent manner. Importantly, the induction occurred in a short amount of time (within 1-2 hr) and was sustained even up to 72 hr (data not show). Additionally, induction occurred at low nanomolar concentrations. […] (FIG. 6D).

[3] = tested on: All other targets (seventy-one targets tested); assay: In vitro side effect profiling: all other of seventy-one targets; conditions: 10 μM, duplicate
Description: as §1

male C57BL/6 mice = assay: Maximum tolerated dose / tolerability study; type: in vivo; conditions: single dose 10-75 mg/kg and five-day repeat dose 10-100 mg/kg i.p.
Description: (§2) We determined maximum tolerated dose (MTD) of Compound 212320 in male C57BL/6 mice. The study was conducted in two phases: (I) a single dose tolerability study tested at the doses of 10, 25, 50, and 75 mg/kg i.p. (3 mice/dose) and (II) a five-day repeat-dose tolerability study tested at the doses of 10, 25, 50, and 100 mg/kg i.p. (5 mice/dose). […] In the repeat-dose study, body weights were determined prior to each dose and prior to termination on day 6. Clinical pathologies including standard hematology, serum chemistry and coagulation parameters were evaluated on samples collected on day 6. All animals from phase II were necropsied, and selected organs were weighed. […] Due to lack of toxicity, the highest dose tested, 100 mg/kg/day, was determined to be the 5-day no observed adverse effect level (NOAEL) for Compound 212320.

[4] = Maximum tolerated dose / tolerability study; type: in vivo; conditions: male, C57BL/6, mouse, in vivo, ip; five-day repeat-dose i.p., highest dose tested; read-out: 5-day no observed adverse effect level (NOAEL)
Description: as §2

EAAT2 [5] = assay: EAAT2 protein levels and glutamate uptake in primary dissociated neuron and astrocyte mixed cultures; type: cell-based; conditions: seven day-old mixed cultures, serum-free media, 48 hr
Description: We next evaluated Compound 212320 in primary dissociated neuron and astrocyte mixed cultures. Seven day-old cultures were treated with Compound 212320 in serum-free media for 48 hr. As shown in FIG. 7A-B, Compound 212320 increased EAAT2 protein levels and glutamate uptake function.

[6] = tested on: male C57/BL6 mice, focal cerebral ischemia; assay: Stroke model, transient middle cerebral artery occlusion (MCAO); type: in vivo, mouse; conditions: 24 hours after surgery
Description: Compound 212320 was evaluated in the transient middle cerebral artery occlusion (MCAO), a well-characterized model of focal cerebral ischemia (experimental stroke). Adult male C57/BL6 mice (60-70 days old) were used. The internal carotid artery was occluded for 60 min. Following reperfusion, mice received 40 mg/kg of Compound 212320 by intraperitoneal injection. 24 hours after surgery, brains were removed and processed to determine infarct volume.
Mice received 40 mg/kg Compound 212320 or vehicle intraperitoneally and 24 h after stroke, brains were processed to measure infarct volume.

SOD1(G93A) mice = assay: ALS model (SOD1(G93A) mouse model); type: in vivo
Source text: Guidelines established by the ENMC Group were followed (see Ludolph, A. C., et al. Guidelines for the preclinical in vivo evaluation of pharmacological active drugs for ALS/MND: report on the 142nd ENMC international workshop. Amyotroph Lateral Scler 8, 217-223 (2007))^1, which included the use of gender matched mice (i.e. equal number of males and females in each experimental group), use of littermate matched mice (i.e. the littermate of a therapeutic mouse is used in the control group) and use of mice with the same copy number of the SOD1 transgene. SOD1(G93A) mice received Compound 212320 (shown below, shown also as compound 7-4 in FIG. 1) at 40 mg/kg in 500 μl of 1% DMSO/1% polyethylene glycol 400/0.2% Tween 80/10% hydroxypropyl-β-cyclodextrin/saline starting at 84 days of age (6 times/week, at the same time each day) until death or harvested at 120-days of age for analysis. Western blotting, cresyl violet staining and immunofluorescence staining were performed as previously described in Chang, Y., et al. Messenger RNA oxidation occurs early in disease pathogenesis and promotes motor neuron degeneration in ALS. PLoS One 3, e2849 (2008).
Motor function was determined by measuring peak force using a digital grip dynamometer outfitted with a hind limb pull bar assembly (Columbus Instruments). Measurements started from 70 days of age (three times a week, on the same day of each week and at the same time of each scheduled day) until the mouse loses all strength. Six repetitions were conducted and the average was determined for each point. The examiners were unaware of the treatment of the mice. Food and water were placed on the cage floor when mice began to show motor deficits. […] This time point was recorded as the time of death for survival in days.
Referring to FIG. 2, Compound 212320 delayed motor function decline and extended life span in SOD1(G93A) mice. […] Data were analyzed using the dynamic fitting nonlinear regression analysis. […] Data were analyzed using Kaplan-Meier survival analysis. […] Spinal cords from 120-day-old mice were analyzed.

[7] = i.p., 40 mg/kg daily from 84 days of age

Structure (SMILES): Cc1ccccc1CSc1ccc(-c2ccccn2)nn1 [Compound 7-4]
- Activity on all other kinases tested [1]: insignificant activity
- Localization of induced EAAT2 protein (EAAT2 [2]): properly localized to the plasma membrane
- inhibition, all other targets [3]: < 30%
- Clinical signs of toxicity, clinical pathology, body weight (male C57BL/6 mice): no clinical signs of toxicity
- NOAEL at 5 day [4]: 100 mg/kg/day
- EAAT2 protein levels (EAAT2 [5]): increased
- Glutamate uptake function (EAAT2 [5]): increased
- Decrease of infarct volume ([6]; 40 mg/kg i.p. following reperfusion, vs vehicle): 57%
- Infarct volume ([6]; 40 mg/kg i.p., n=6): 6.8±1.6
- EAAT2 protein levels in spinal cord (western blot) (SOD1(G93A) mice; 120-day-old mice): restores
- Life span (survival) (SOD1(G93A) mice; [7]): extended
- Motor function decline (grip strength) (SOD1(G93A) mice; [7]): delayed
